17 compounds from patent publication US20190127354A1, “2,4,6,7-TETRASUBSTITUTED QUINOLINE COMPOUNDS AS INHIBITORS OF DNA […]” (FUNDACIÓN PARA LA INVESTIGACIÓN MÉDICA APLICADA, priority 2015, published 2019) can be followed below.

By IC50 is commonly meant the concentration that gives 50% inhibition. Read a high IC50 as weaker potency.

Experiment [1] has as its target T1, human DNMT1 (Homo sapiens, UniProt P26358).
T1 construct: purchased Reaction Biology Corp. DMT-21-124
The experiment can be described thus: DNMT1 enzyme activity assay (TR-FRET, EPIgeneous methyltransferase assay). Format: biochemical. The conditions noted are these: human DNMT1, 15 minutes at 37° C. Here is the method: DNMT1 Enzyme Activity Assay
The biochemical assay to measure DNMT1 enzyme activity relies on time-resolved fluorescence energy transfer (TR-FRET) between lumi4-Tb (donor) and d2 (acceptor) using the EPIgeneous methyltransferase assay (CisBio Cat#62SAHPEB). […] TR-FRET signal is inversely proportional to the concentration of SAH, product of DNMT1 enzyme activity, in the sample. The human DNMT1 was obtained from Reaction Biology Corp. (Cat# DMT-21-124).
Enzyme activity assay was carried out in a white 384-well plate in a final volume of 20 μl, as follow: • 4 μl of vehicle or studied compound 2.5× concentrated prepared in assay buffer (50 mM Tris-HCl, 1 mM EDTA, 1 mM DTT, 0.1% Triton X-100, 5% glycerol pH 7.5). Final percentage of DMSO was 0.5%. • 2 μl of 1 nM DNMT1 enzyme diluted in assay buffer.
For each well, fluorescence was measured at 620 nm and 665 nm. A ratio (665 nm/620 nm) was then calculated in order to minimize medium interferences. Positive control was obtained in the presence of the vehicle of the compounds. Calculated IC50 values were determined using GraphPrism using 4-parameters inhibition curve.
For orientation: TR-FRET usually uses a lanthanide donor and a delayed reading to cut background.

The target in experiment [2] is T2, human G9a enzyme (Homo sapiens, UniProt Q96KQ7).
T2 construct: purchased BPS Biosciences 51001; host or cells: baculovirus infected Sf9 cells
T2 sequence (Q96KQ7 1-1210): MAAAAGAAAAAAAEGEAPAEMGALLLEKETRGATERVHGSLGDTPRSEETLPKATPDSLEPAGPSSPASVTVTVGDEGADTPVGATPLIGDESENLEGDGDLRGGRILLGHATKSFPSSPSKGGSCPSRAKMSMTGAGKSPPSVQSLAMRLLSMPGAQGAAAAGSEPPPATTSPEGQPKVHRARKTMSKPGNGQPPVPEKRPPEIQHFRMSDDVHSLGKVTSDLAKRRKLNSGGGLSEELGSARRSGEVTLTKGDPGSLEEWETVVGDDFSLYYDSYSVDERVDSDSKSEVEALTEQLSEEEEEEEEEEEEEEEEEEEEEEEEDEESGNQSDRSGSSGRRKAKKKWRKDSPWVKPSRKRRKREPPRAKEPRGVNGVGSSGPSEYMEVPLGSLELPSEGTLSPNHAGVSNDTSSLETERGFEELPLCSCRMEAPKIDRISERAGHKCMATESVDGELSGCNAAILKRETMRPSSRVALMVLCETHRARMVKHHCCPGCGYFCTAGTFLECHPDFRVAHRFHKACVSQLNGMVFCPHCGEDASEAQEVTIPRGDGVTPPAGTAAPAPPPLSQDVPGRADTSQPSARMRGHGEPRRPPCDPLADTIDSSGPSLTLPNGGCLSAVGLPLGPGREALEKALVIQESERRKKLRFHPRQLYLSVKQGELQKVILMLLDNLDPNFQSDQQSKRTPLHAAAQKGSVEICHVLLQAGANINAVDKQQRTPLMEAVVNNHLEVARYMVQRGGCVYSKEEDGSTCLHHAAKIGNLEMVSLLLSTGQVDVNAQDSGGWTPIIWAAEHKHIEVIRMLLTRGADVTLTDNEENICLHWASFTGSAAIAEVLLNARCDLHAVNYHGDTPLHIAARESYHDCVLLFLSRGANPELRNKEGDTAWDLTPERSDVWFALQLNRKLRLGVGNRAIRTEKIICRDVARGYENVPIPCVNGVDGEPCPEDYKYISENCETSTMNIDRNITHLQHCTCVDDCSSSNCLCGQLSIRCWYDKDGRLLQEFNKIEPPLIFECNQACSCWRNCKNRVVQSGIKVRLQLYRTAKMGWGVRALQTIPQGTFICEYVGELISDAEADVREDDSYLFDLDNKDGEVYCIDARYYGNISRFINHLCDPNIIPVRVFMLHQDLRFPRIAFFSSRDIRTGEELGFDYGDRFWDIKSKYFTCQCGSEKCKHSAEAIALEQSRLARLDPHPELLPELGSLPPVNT
The experiment is described as follows: G9a enzyme activity assay (TR-FRET). It is filed as biochemical. The note with it: 1 hour at room temperature. Here is the method:
G9a Enzyme Activity Assay
The biochemical assay to measure G9a enzyme activity relies on time-resolved fluorescence energy transfer (TR-FRET) between europium cryptate (donor) and XL665 (acceptor). […] The human G9a enzyme expressed in a baculovirus infected Sf9 cell expression system was obtained from BPS Biosciences (Cat. #51001). Enzyme activity assay was carried out in a white 384-well plate in a final volume of 20 μl, as follow: • 4 μl of vehicle or studied compound 2.5× concentrated prepared in assay buffer (50 mM Tris-HCl, 10 mM NaCl, 4 mM DTT, 0.01% Tween-20 pH9). Final percentage of DMSO was 0.5%. • 2 μl of 1 nM G9a enzyme diluted in assay buffer. […] Final concentration 150 nM. • Then, add 5 μl of streptavidin XL665 beads. Final concentration of 16 μM. • Read the plate after 1 hour of incubation at room temperature.
For each well, fluorescence was measured at 620 nm and 665 nm. A ratio (665 nm/620 nm) was then calculated in order to minimize medium interferences. Positive control was obtained in the presence of the vehicle of the compounds. Negative control was obtained in the absence of G9a enzyme activity. Calculated IC50 values were determined using GraphPrism using 4-parameters inhibition curve.

T1 sequence (P26358 whole entry): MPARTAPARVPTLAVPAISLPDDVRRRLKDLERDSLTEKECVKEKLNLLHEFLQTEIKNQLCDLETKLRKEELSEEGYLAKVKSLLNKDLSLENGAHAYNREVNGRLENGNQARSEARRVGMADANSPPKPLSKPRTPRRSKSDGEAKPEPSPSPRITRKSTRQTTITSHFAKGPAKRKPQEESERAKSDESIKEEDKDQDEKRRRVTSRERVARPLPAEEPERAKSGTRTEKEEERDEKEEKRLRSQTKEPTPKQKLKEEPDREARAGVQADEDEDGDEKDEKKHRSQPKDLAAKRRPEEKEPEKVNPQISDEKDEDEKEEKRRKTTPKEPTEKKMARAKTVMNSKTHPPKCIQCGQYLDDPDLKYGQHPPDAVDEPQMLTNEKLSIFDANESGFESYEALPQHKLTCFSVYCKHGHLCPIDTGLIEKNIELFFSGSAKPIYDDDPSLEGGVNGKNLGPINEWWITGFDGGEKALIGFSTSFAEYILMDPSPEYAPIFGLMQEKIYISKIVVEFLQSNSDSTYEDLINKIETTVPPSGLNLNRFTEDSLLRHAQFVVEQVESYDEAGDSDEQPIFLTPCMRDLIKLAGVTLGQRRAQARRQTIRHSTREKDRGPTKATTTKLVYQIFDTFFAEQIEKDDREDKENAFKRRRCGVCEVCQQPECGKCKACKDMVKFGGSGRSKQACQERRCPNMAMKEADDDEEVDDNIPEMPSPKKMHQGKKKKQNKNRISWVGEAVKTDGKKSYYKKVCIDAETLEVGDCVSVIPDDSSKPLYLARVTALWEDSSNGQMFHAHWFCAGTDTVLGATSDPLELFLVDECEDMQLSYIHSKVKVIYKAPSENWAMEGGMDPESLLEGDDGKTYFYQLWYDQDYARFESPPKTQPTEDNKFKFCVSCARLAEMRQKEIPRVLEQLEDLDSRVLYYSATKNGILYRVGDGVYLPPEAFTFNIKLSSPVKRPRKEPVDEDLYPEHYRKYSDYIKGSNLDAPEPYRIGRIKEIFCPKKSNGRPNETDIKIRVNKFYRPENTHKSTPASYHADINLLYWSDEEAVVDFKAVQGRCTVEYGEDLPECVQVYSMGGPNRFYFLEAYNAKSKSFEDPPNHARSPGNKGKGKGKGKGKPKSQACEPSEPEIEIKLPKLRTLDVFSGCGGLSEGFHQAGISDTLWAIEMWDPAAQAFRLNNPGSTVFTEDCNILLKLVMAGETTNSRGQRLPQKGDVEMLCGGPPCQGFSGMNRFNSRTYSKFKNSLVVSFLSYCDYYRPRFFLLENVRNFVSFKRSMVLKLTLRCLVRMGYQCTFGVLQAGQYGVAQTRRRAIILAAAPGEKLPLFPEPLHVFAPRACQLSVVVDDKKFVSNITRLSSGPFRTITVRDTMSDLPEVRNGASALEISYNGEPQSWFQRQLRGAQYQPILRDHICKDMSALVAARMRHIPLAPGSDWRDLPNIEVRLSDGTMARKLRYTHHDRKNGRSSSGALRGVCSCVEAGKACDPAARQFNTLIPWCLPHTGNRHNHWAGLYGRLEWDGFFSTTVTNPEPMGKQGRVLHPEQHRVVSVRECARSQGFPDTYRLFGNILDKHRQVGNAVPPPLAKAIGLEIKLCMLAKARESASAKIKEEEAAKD

For the compound `CCc1ccc(-c2cc(N(C)CC3CCN(C)CC3)c3cc(OC)c(OCC4CCN(C)CC4)cc3n2)o1` [Compound 1-16], the results for the concentration for half-maximal inhibition (IC50) in experiment [1] and in experiment [2] were 1 to 10 µM and above 10 µM, respectively.
In the case of `COc1cc2c(N(C)C3CCN(C)CC3)cc(-c3ccc(C)[nH]3)nc2cc1OCCCN1CCCC1` [Compound 1-07], the concentration for half-maximal inhibition (IC50) was 0.5 to 1 µM in experiment [1] and below 0.1 µM in experiment [2].
Turning to `COc1cc2c(N(C)CC3CCNCC3)cc(-c3ccccc3)nc2cc1OCCCN1CCCC1` [Compound 1-23, 6-methoxy-N-methyl-2-phenyl-N-(4-piperidylmethyl)-7-(3-pyrrolidin-1-ylpropoxy)quinolin-4-amine], the results for the IC50 in experiment [1] and in experiment [2] were 0.5 to 1 µM and 0.1 to 0.5 µM, respectively.
Regarding `COc1cc2c(N(C)C3CC4(CCN(C)CC4)C3)cc(-c3ccc(C)o3)nc2cc1OCC1CCN(C)CC1` [Compound 1-08, 6-methoxy-N-methyl-N-(7-methyl-7-azaspiro[3.5]nonan-2-yl)-2-(5-methyl-2-furyl)-7-[(1-methyl-4-piperidyl)methoxy]quinolin-4-amine], the results for the IC50 in experiment [1] and in experiment [2] were 1 to 10 µM and above 10 µM, respectively.
For `COc1cc2c(N(C)C3CC4(CCN(C(C)C)CC4)C3)cc(-c3ccc(C)o3)nc2cc1OC1CC2(C1)CN(CC#N)C2` (stereo not shown) [Compound 1-15], the IC50 is 1 to 10 µM in experiment [1] and above 10 µM in experiment [2].
Take `CNC1CCN(c2cc(-c3ccc(C)o3)nc3cc(OCCCN4CCCC4)c(OC)cc23)CC1` [Compound 2-01, 1-[6-methoxy-2-(5-methyl-2-furyl)-7-(3-pyrrolidin-1-ylpropoxy)-4-quinolyl]-N-methyl-piperidin-4-amine]: the results for the IC50 in experiment [1] and in experiment [2] were 0.5 to 1 µM and 1 to 10 µM, respectively.
For the compound `COc1cc2c(N(C)C3CCC4(CC3)CN(C)C4)cc(-c3ccc(C)o3)nc2cc1OCCCN1CCCC1` [Compound 1-18], the concentration for half-maximal inhibition (IC50) in experiment [1] and in experiment [2] was 1 to 10 µM in each case.
`CNCC1CCN(c2cc(C3CCCCC3)nc3cc(OCCCN4CCCC4)c(OC)cc23)CC1` [Compound 2-08, 1-[1-[2-cyclohexyl-6-methoxy-7-(3-pyrrolidin-1-ylpropoxy)-4-quinolyl]-4-piperidyl]-N-methyl-methanamine]: the concentration for half-maximal inhibition (IC50) in experiment [1] was 1 to 10 µM; in experiment [2], below 0.1 µM.
Turning to `COc1cc2c(N3CCC(C(C)(C)N)CC3)cc(-c3ccc(C)o3)nc2cc1OCCCN1CCCC1` [Compound 2-07], the concentration for half-maximal inhibition (IC50) in experiment [1] is 1 to 10 µM; in experiment [2], 0.5 to 1 µM.
The corresponding values for `COc1cc2c(N(C)C3CC4(CCN(C(C)C)CC4)C3)cc(-c3ccc(C)o3)nc2cc1OCCCN1CCCC1` [Compound 1-09] are 0.5 to 1 µM and 0.5 to 1 µM.
Take `COc1cc2c(C3CCN(C)CC3)cc(-c3ccc(C)o3)nc2cc1OCCCN1CCCC1` [Compound 4-02, 6-methoxy-2-(5-methyl-2-furyl)-4-(1-methyl-4-piperidyl)-7-(3-pyrrolidin-1-ylpropoxy)quinoline]: the concentration for half-maximal inhibition (IC50) in experiment [1] and in experiment [2] was 1 to 10 µM throughout.
For the compound `COc1cc2c(N(C)C3CCN(C)CC3)cc(-c3cc(C)oc3C)nc2cc1OCCCN1CCCC1` [Compound 1-05], the half-maximal inhibitory concentration (IC50) in experiment [1] and in experiment [2] was 1 to 10 µM each time.
Turning to `CNCC1CCN(c2cc(-c3ccccc3)nc3cc(OCCCN4CCCC4)c(OC)cc23)CC1` [Compound 2-09], the 50% inhibitory concentration (IC50) was in the range of 1 to 10 µM in experiment [1] and 0.1 to 0.5 µM in experiment [2].
The corresponding values for `COc1cc2c(OCC3CCN(C)CC3)cc(-c3ccc(C)[nH]3)nc2cc1OCCCN1CCCC1` [Compound 3-03] are 0.5 to 1 µM and 0.1 to 0.5 µM.
In the case of `COc1cc2c(OCC3CCN(C)CC3)cc(-c3ccc(C)o3)nc2cc1OCCCN1CCCC1` [Compound 3-02], the results for the IC50 in experiment [1] and in experiment [2] were 0.5 to 1 µM and 1 to 10 µM, respectively.
In the case of `COc1cc2c(N(C)C3CC4(CCN(C(C)C)CC4)C3)cc(-c3ccc(C)o3)nc2cc1OC1CC2(C1)CN(C)C2` (stereo not shown) [Compound 1-14], the half-maximal inhibitory concentration (IC50) in experiment [1] is 1 to 10 µM; in experiment [2], above 10 µM.
The like results for `CNC1CCN(c2cc(-c3ccc4occc4c3)nc3cc(OCCCN4CCCC4)c(OC)cc23)CC1` [Compound 2-04] were, in that order, 1 to 10 µM and above 10 µM.
